IC50 data for 20 compounds are collected here from patent US9493446B2, “Orexin receptor antagonists which are [ortho bi-(hetero-)aryl]-[2-(meta bi-(hetero-)aryl)-pyrrolidin-1-yl]-methanone derivatives” (Actelion Pharmaceuticals Ltd, priority 2012, dated 2016).

One assay addresses orexin-1 (Homo sapiens (Human), UniProt O43613). Briefly: Intracellular calcium measurement (FLIPR), CHO cells expressing human orexin-1 receptor, 3 nM orexin-A. The conditions noted are these: CHO cells expressing human orexin-1 receptor, FLIPR, 3 nM orexin-A; geometric mean if determined several times; read-out: IC50 OX1. Type of assay: cell-based. As to the method: (§1) In Vitro Assay: Intracellular Calcium Measurements:
(§2) Chinese hamster ovary (CHO) cells expressing the human orexin-1 receptor and the human orexin-2 receptor, respectively, are grown in culture medium (Ham F-12 with L-Glutamine) containing 300 μg/mL G418, 100 U/mL penicillin, 100 μg/mL streptomycin and 10% heat inactivated fetal calf serum (FCS). The cells are seeded at 20,000 cells/well into 384-well black clear bottom sterile plates (Greiner). The seeded plates are incubated overnight at 37° C. in 5% CO2.
(§3) Human orexin-A as an agonist is prepared as 1 mM stock solution in MeOH: water (1:1), diluted in HBSS containing 0.1% bovine serum albumin (BSA), NaHCO3: 0.375 g/L and 20 mM HEPES for use in the assay at a final concentration of 3 nM.
(§4) Antagonists are prepared as 10 mM stock solution in DMSO, then diluted in 384-well plates using DMSO followed by a transfer of the dilutions into in HBSS containing 0.1% bovine serum albumin (BSA), NaHCO3: 0.375 g/L and 20 mM HEPES. On the day of the assay, 50 μL of staining buffer (HBSS containing 1% FCS, 20 mM HEPES, NaHCO3: 0.375 g/L, 5 mM probenecid (Sigma) and 3 μM of the fluorescent calcium indicator fluo-4 AM (1 mM stock solution in DMSO, containing 10% pluronic) is added to each well. The 384-well cell-plates are incubated for 50 min at 37° C. in 5% CO2 followed by equilibration at rt for 30 min before measurement.
(§5) Within the Fluorescent Imaging Plate Reader (FLIPR Tetra, Molecular Devices), antagonists are added to the plate in a volume of 10 μL/well, incubated for 120 min and finally 10 μL/well of agonist is added. Fluorescence is measured for each well at 1 second intervals, and the height of each fluorescence peak is compared to the height of the fluorescence peak induced by 3 nM orexin-A with vehicle in place of antagonist. […] Optimized conditions were achieved by adjustment of pipetting speed and cell splitting regime. The calculated IC50 values may fluctuate depending on the daily cellular assay performance. Fluctuations of this kind are known to those skilled in the art.

Another assay concerns the target human orexin-2 receptor (Homo sapiens (Human), UniProt O43614). Briefly: Intracellular calcium measurement (FLIPR), CHO cells expressing human orexin-2 receptor, 3 nM orexin-A. Format: cell-based. The conditions noted are these: CHO cells expressing human orexin-2 receptor, FLIPR, 3 nM orexin-A; geometric mean if determined several times; read-out: IC50 OX2. How it is done:
as §1, §2, §3, §4, §5

Molecules are shown by their SMILES. pIC50: −log10 of the molar value.

A word on the pIC50: it is the IC50 on a negative log10 scale, so that one unit is a factor of ten.

Sequence of human orexin-2 receptor (O43614 whole entry): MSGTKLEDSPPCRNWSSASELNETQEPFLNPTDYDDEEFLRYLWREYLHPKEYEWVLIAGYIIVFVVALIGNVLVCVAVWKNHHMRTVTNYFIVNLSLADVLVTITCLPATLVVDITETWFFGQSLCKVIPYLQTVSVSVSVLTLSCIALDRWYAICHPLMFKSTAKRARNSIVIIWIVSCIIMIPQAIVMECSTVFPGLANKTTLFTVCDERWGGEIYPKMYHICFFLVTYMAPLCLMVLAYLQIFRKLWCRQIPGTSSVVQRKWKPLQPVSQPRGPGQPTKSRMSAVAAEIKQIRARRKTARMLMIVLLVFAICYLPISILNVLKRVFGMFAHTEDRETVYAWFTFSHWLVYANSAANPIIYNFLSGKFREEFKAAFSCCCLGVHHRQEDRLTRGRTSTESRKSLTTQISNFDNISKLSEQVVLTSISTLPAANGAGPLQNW
Sequence of orexin-1 (O43613 whole entry): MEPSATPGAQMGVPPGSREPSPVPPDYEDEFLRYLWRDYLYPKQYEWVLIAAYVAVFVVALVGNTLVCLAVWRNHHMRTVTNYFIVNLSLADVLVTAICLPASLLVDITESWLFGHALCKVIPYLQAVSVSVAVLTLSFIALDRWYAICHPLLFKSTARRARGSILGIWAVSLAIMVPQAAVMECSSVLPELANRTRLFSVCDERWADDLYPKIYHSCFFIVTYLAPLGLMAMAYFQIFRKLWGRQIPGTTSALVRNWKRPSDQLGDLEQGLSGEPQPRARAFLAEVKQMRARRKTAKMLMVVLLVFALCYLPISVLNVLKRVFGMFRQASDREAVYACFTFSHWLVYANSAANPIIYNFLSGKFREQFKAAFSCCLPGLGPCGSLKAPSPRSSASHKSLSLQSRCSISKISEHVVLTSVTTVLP

On to `Cc1ccc(-n2nccn2)c(C(=O)N2CCC[C@H]2c2cc(-c3ccccc3)no2)c1` [Example 420, (5-Methyl-2-[1,2,3]triazol-2-yl-phenyl)-[(S)-2-(3-phenyl-isoxazol-5-yl)-pyrrolidin-1-yl]-methanone], for which the pIC50 at orexin-1 is 5.97; at human orexin-2 receptor, 6.88.
Regarding `Cc1cccc(-c2nnc([C@@H]3CCCN3C(=O)c3cc(C)ccc3-n3nccn3)o2)c1` [Example 438, (5-Methyl-2-[1,2,3]triazol-2-yl-phenyl)-[(S)-2-(5-m-tolyl-[1,3,4]oxadiazol-2-yl)-pyrrolidin-1-yl]-methanone], the results for the pIC50 on orexin-1 and at human orexin-2 receptor were 5.83 and 6.44, respectively.
The like results for `COc1c(F)cccc1-c1nnc([C@@H]2CCCN2C(=O)c2cc(C)ccc2-n2nccn2)o1` [Example 448, {(S)-2-[5-(3-Fluoro-2-methoxy-phenyl)-[1,3,4]oxadiazol-2-yl]-pyrrolidin-1-yl}-(5-methyl-2-[1,2,3]triazol-2-yl-phenyl)-methanone] were, in that order, 6.12 and 6.63.
On to `CCOc1c(F)cccc1-c1nnc([C@@H]2CCCN2C(=O)c2cc(C)ccc2-n2nccn2)o1` [Example 449, {(S)-2-[5-(2-Ethoxy-3-fluoro-phenyl)-[1,3,4]oxadiazol-2-yl]-pyrrolidin-1-yl}-(5-methyl-2-[1,2,3]triazol-2-yl-phenyl)-methanone], for which the negative-log IC50 (pIC50) was 6.55 at orexin-1 and 6.63 on human orexin-2 receptor.
Regarding `CCOc1ncccc1-c1nnc([C@@H]2CCCN2C(=O)c2cc(C)ccc2-n2nccn2)o1` [Example 450, {(S)-2-[5-(2-Ethoxy-pyridin-3-yl)-[1,3,4]oxadiazol-2-yl]-pyrrolidin-1-yl}-(5-methyl-2-[1,2,3]triazol-2-yl-phenyl)-methanone], the pIC50 at orexin-1 was 6.74; at human orexin-2 receptor it was 7.02.
Regarding `Cc1cc(C)cc(-c2nnc([C@@H]3CCCN3C(=O)c3cc(C)ccc3-n3nccn3)o2)c1` [Example 451, {(S)-2-[5-(3,5-Dimethyl-phenyl)-[1,3,4]oxadiazol-2-yl]-pyrrolidin-1-yl}-(5-methyl-2-[1,2,3]triazol-2-yl-phenyl)-methanone], the results for the pIC50 on orexin-1 and on human orexin-2 receptor were 6.27 and 6.49, respectively.
On to `CCc1ccccc1-c1nnc([C@@H]2CCCN2C(=O)c2cc(C)ccc2-n2nccn2)o1` [Example 452, {(S)-2-[5-(2-Ethyl-phenyl)-[1,3,4]oxadiazol-2-yl]-pyrrolidin-1-yl}-(5-methyl-2-[1,2,3]triazol-2-yl-phenyl)-methanone], for which the pIC50 was 6.60 at orexin-1 and 6.68 at human orexin-2 receptor.
The like results for `Cc1ccc(-n2nccn2)c(C(=O)N2CCC[C@H]2c2nnc(-c3cccc(F)c3C)o2)c1` [Example 453, {(S)-2-[5-(3-Fluoro-2-methyl-phenyl)-[1,3,4]oxadiazol-2-yl]-pyrrolidin-1-yl}-(5-methyl-2-[1,2,3]triazol-2-yl-phenyl)-methanone] were, in that order, 6.40 and 7.10.
The like results for `CCOc1ccccc1-c1nnc([C@@H]2CCCN2C(=O)c2cc(C)ccc2-n2nccn2)o1` [Example 454, {(S)-2-[5-(2-Ethoxy-phenyl)-[1,3,4]oxadiazol-2-yl]-pyrrolidin-1-yl}-(5-methyl-2-[1,2,3]triazol-2-yl-phenyl)-methanone] were, in that order, 5.94 and 6.43.
The like results for `Cc1ccc(-n2nccn2)c(C(=O)N2CCC[C@H]2c2nnc(-c3cccc(Cl)c3)o2)c1` [Example 455, {(S)-2-[5-(3-Chloro-phenyl)-[1,3,4]oxadiazol-2-yl]-pyrrolidin-1-yl}-(5-methyl-2-[1,2,3]triazol-2-yl-phenyl)-methanone] were, in that order, 6.08 and 5.77.
Turning to `COc1cccc(-c2nnc([C@@H]3CCCN3C(=O)c3cc(C)ccc3-n3nccn3)o2)c1` [Example 456, {(S)-2-[5-(3-Methoxy-phenyl)-[1,3,4]oxadiazol-2-yl]-pyrrolidin-1-yl}-(5-methyl-2-[1,2,3]triazol-2-yl-phenyl)-methanone], the pIC50 was 5.76 on orexin-1 and 6.27 at human orexin-2 receptor.
`COc1ccc(-c2nnc([C@@H]3CCCN3C(=O)c3cc(C)ccc3-n3nccn3)o2)cc1` [Example 457, {(S)-2-[5-(4-Methoxy-phenyl)-[1,3,4]oxadiazol-2-yl]-pyrrolidin-1-yl}-(5-methyl-2-[1,2,3]triazol-2-yl-phenyl)-methanone]: the results for the pIC50 at orexin-1 and at human orexin-2 receptor were 4.77 and 5.46, respectively.
With `Cc1ccc(-n2nccn2)c(C(=O)N2CCC[C@H]2c2nnc(-c3ccccc3OC(F)(F)F)s2)c1` [Example 458, (5-Methyl-2-[1,2,3]triazol-2-yl-phenyl)-{(S)-2-[5-(2-trifluoromethoxy-phenyl)-[1,3,4]thiadiazol-2-yl]-pyrrolidin-1-yl}-methanone], the pIC50 is 6.75 on orexin-1 and 6.95 at human orexin-2 receptor.
For `Cc1ccc(-n2nccn2)c(C(=O)N2CCC[C@H]2c2nc(-c3ccccc3)co2)c1` [Example 459, (5-Methyl-2-[1,2,3]triazol-2-yl-phenyl)-[(S)-2-(4-phenyl-oxazol-2-yl)-pyrrolidin-1-yl]-methanone], in that order: 6.89 and 6.53.
For `Cc1ccc(-n2nccn2)c(C(=O)N2CCC[C@H]2c2nc(-c3ccccc3OC(F)(F)F)co2)c1` [Example 460, (5-Methyl-2-[1,2,3]triazol-2-yl-phenyl)-{(S)-2-[4-(2-trifluoromethoxy-phenyl)-oxazol-2-yl]-pyrrolidin-1-yl}-methanone], the pIC50 at orexin-1 is 8.00; on human orexin-2 receptor, 7.80.
The like results for `Cc1ccc(-n2nccn2)c(C(=O)N2CCC[C@H]2c2ncc(-c3ccccc3)o2)c1` [Example 461, (5-Methyl-2-[1,2,3]triazol-2-yl-phenyl)-[(S)-2-(5-phenyl-oxazol-2-yl)-pyrrolidin-1-yl]-methanone] were, in that order, 6.94 and 6.33.
The like results for `Cc1ccc(-n2nccn2)c(C(=O)N2CCC[C@H]2c2nnc(-c3ccccc3)[nH]2)c1` [Example 463, (5-Methyl-2-[1,2,3]triazol-2-yl-phenyl)-[(S)-2-(5-phenyl-4H-[1,2,4]triazol-3-yl)-pyrrolidin-1-yl]-methanone] were, in that order, 6.15 and 6.68.
For `COc1ccccc1-c1nnc([C@@H]2CCCN2C(=O)c2cc(C)ccc2-n2nccn2)[nH]1` [Example 464, {(S)-2-[5-(2-Methoxy-phenyl)-4H-[1,2,4]triazol-3-yl]-pyrrolidin-1-yl}-(5-methyl-2-[1,2,3]triazol-2-yl-phenyl)-methanone], in that order: 7.31 and 6.91.
As to `Cc1cc(C)cc(-c2nnc([C@@H]3CCCN3C(=O)c3cc(C)ccc3-n3nccn3)[nH]2)c1` [Example 511, {(S)-2-[5-(3,5-Dimethyl-phenyl)-4H-[1,2,4]triazol-3-yl]-pyrrolidin-1-yl}-(5-methyl-2-[1,2,3]triazol-2-yl-phenyl)-methanone], the values for the pIC50 on orexin-1 and on human orexin-2 receptor were 6.19 and 6.95, respectively.
For `COc1ccccc1-c1cnc([C@@H]2CCCN2C(=O)c2cc(C)ccc2-n2nccn2)[nH]1` [Example 516, {(S)-2-[5-(2-Methoxy-phenyl)-1H-imidazol-2-yl]-pyrrolidin-1-yl}-(5-methyl-2-[1,2,3]triazol-2-yl-phenyl)-methanone], the pIC50 at orexin-1 and at human orexin-2 receptor was 7.74 throughout.
